The values below come from paper PMC7312356 (International Journal of Molecular Sciences, 2020).

The test has as its target T1, SgGAPDH (Streptococcus gordonii, UniProt Q68AZ3).
T1 construct: gene GAPDH
Kind of test: biochemical.

T1 sequence (Q68AZ3 entry or part of it): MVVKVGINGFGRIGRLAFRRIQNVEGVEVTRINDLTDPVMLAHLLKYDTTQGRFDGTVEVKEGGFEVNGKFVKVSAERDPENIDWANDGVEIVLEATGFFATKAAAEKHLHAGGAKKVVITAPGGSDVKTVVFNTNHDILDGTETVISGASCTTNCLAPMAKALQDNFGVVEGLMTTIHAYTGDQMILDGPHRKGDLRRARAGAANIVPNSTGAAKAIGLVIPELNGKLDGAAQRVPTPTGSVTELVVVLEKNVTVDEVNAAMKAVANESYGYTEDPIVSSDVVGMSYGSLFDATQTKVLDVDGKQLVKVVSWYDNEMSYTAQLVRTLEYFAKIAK

The term Kd denotes the equilibrium constant for the complex coming apart. Lower therefore signals higher affinity. The compound `C=CC1=C(C)C2=Cc3c(C=C)c(C)c4[n]3[Fe]([Cl])[n]3c(c(C)c(CCC(=O)O)c3=CC3=NC(=C4)C(C)=C3CCC(=O)O)=CC1=N2` [Fe(III)heme] displayed a Kd of 1700 nM.
